# Data published in patent US20110105472A1, “Diaminopyrimidines as crop protection agents” (Bayer CropScience AG, priority 2008, published 2011).
# Marks after values point to notes of the source that are not given here.
# How the values were obtained:
# [1] = test system: Amaranthus retroflexus (redroot pigweed); assay: Herbicidal post-emergence action (PO), AMARE; assay type: in vivo; details: dose 1000 g/ha, rated visually after about 2 weeks
# Description: (§1) 2. Herbicidal Post-Emergence Action (═PO)
# (§2) Seeds of monocotyledonous and dicotyledonous harmful plants are placed in sandy loam, covered with soil and cultivated in a greenhouse under good growth conditions. About 2 weeks after sowing, the test plants are treated at the one-leaf stage. To this end, the compounds according to the invention, formulated as emulsion concentrates (EC), as an aqueous emulsion with a water application rate of 800 l/ha (converted), are sprayed onto the green parts of the plants. After the test plants have been kept in the greenhouse under optimum growth conditions for about 2 weeks, the effect of the preparations is rated visually in comparison to untreated controls (herbicidal effect in percent (%): 100% effect=the plants have died, 0% effect=like control plants). CAPBP=Capsella bursa-pastoris (shepherd's purse), STEME=Stellaria media (common chickweed), ABUTH=Abutilon theophrasti (velvetleaf), AMARE=Amaranthus retroflexus (redroot pigweed)
# [2] = test system: Capsella bursa-pastoris (shepherd's purse); assay: Herbicidal post-emergence action (PO), CAPBP; assay type: in vivo; details: dose 1000 g/ha, rated visually after about 2 weeks
# Description: as §1, §2
# [3] = test system: Stellaria media (common chickweed); assay: Herbicidal post-emergence action (PO), STEME; assay type: in vivo; details: dose 1000 g/ha, rated visually after about 2 weeks
# Description: as §1, §2
# [4] = logP by LC-MS, method [b], acidic range pH 2.7; assay type: physicochemical; details: pH 2.7
# [5] = test system: Abutilon theophrasti (velvetleaf); assay: Herbicidal post-emergence action (PO), ABUTH; assay type: in vivo; details: dose 1000 g/ha, rated visually after about 2 weeks
# Description: as §1, §2
# [6] = logP by HPLC on reversed-phase columns (C 18), method [a], acidic range pH 2.3; assay type: physicochemical
# [7] = physchem; assay type: physicochemical; details: pH 7.8
smiles,measurement,setting,value
CC(=O)Nc1cccc(Nc2ncc(Br)c(NC3CCC3)n2)c1 [Compound 96],herbicidal effect AMARE,[1],70%
same,herbicidal effect CAPBP,[2],90%
same,herbicidal effect STEME,[3],70%
same,log p,[4],1.54[b]
CS(=O)(=O)Nc1cccc(Nc2ncc(Br)c(NC3CCC3)n2)c1 [Compound 87],herbicidal effect AMARE,[1],80%
same,herbicidal effect STEME,[3],70%
same,log p,[4],1.73[b]
COc1cc(Nc2ncc(Br)c(NC3CCC3)n2)cc(OC)c1OC [Compound 38],herbicidal effect ABUTH,[5],70%
same,herbicidal effect AMARE,[1],90%
same,log p,[4],2.04[b]
O=C1CCCCN1c1cccc(Nc2ncc(Br)c(NC3CCC3)n2)c1 [Compound 217],log p,[6]; pH 2.3,1.77[a]
NS(=O)(=O)c1ccc(Nc2ncc(Cl)c(NC3CCC3)n2)cc1 [compound 27],log p,[6]; pH 2.3,1.62[a]
Fc1ccc(Nc2ncc(C(F)(F)F)c(NC3CCC3)n2)cc1 [Compound 58],log p,[6]; pH 2.3,3.5[a];
same,log p,[7],4[c]
"FC(F)(F)c1cnc(Cl)nc1NC1CCC1 [Compound V-4, 2-Chloro-N-cyclobutyl-5-trifluoromethylpyrimidine-4-amine]",chromatographic logP,[6]; pH 2.3,3.2
O=C(c1cccc(Nc2ncc(Cl)c(NC3CCC3)n2)c1)N1CCOCC1 [Compound 262],log p,[7],2.39[c]
O=C1COCCN1c1ccc(Nc2ncc(Br)c(NC3CCC3)n2)cc1 [Compound 50],herbicidal effect AMARE,[1],70%
same,herbicidal effect STEME,[3],80%
same,log p,[4],1.53[b]
CCOC(=O)Cc1ccc(Nc2ncc(Br)c(NC3CCC3)n2)cc1 [Compound 148],herbicidal effect ABUTH,[5],70%
same,herbicidal effect AMARE,[1],90%
same,herbicidal effect CAPBP,[2],80%
same,herbicidal effect STEME,[3],70%
same,log p,[4],2.3[b]
CC(C)(C)OC(=O)N1CCN(c2ccc(Nc3ncc(Cl)c(NC4CCC4)n3)cc2)CC1 [compound 28],log p,[6]; pH 2.3,2.73[a]
CN(C)C(=O)c1cccc(Nc2ncc(Br)c(NC3CCC3)n2)c1 [Compound 155],herbicidal effect AMARE,[1],70%
same,herbicidal effect CAPBP,[2],80%
same,herbicidal effect STEME,[3],80%
same,log p,[4],1.68[b]
Ic1cnc(Nc2ccccc2)nc1NC1CCC1 [Compound 236],log p,[6]; pH 2.3,2.19[a]
CSc1cccc(Nc2ncc(Br)c(NC3CCC3)n2)c1 [Compound 44],herbicidal effect CAPBP,[2],80%
same,herbicidal effect STEME,[3],70%
same,log p,[4],2.92[b]
"Clc1ncc(I)c(NC2CCC2)n1 [Compound V-3, 2-Chloro-N-cyclobutyl-5-iodopyrimidine-4-amine]",chromatographic logP,[6]; pH 2.3,3.08
O=C1CCCN1c1cccc(Nc2ncc(Cl)c(NC3CCC3)n2)c1 [Compound 48],log p,[6]; pH 2.3,1.71[a];
same,herbicidal effect AMARE,[1],70%
same,herbicidal effect CAPBP,[2],70%
same,log p,[7],2.74[c]
O=c1[nH]c2ccc(Nc3ncc(Br)c(NC4CCC4)n3)cc2o1 [Compound 5],herbicidal effect CAPBP,[2],70%
same,herbicidal effect STEME,[3],70%
same,log p,[4],1.59[b]
NS(=O)(=O)c1cccc(Nc2ncc(Cl)c(NC3CCC3)n2)c1 [Compound 23],log p,"[6]; method [a], HPLC on reversed-phase C 18, acidic range pH 2.3",1.52[a]
same,logP (pH2.3),"[6]; pH 2.3, values given in the preparation examples",1.52
CC(C)c1ccc(Nc2ncc(Cl)c(NC3CCC3)n2)cc1.Cl [Compound 2-5],log p,[6]; pH 2.3,2.74^[a]
"CCCOc1cccc(Nc2ncc(Br)c(NC3CCC3)n2)c1 [Compound 30, 5-Bromo-N^4-cyclobutyl-N^2-(3-propoxyphenyl)pyrimidine-2,4-diamine]",chromatographic logP,[6]; pH 2.3,3.27
same,chromatographic logP,[4],3.27
CCCCNS(=O)(=O)c1ccc(Nc2ncc(Cl)c(NC3CCC3)n2)cc1 [compound 26],log p,[6]; pH 2.3,2.91[a]
CSc1ccc(Nc2ncc(Cl)c(NC3CCC3)n2)cc1 [Compound 129],herbicidal effect CAPBP,[2],70%
same,herbicidal effect STEME,[3],70%
same,log p,[4],2.33[b]
CC(C#N)c1ccc(Nc2ncc(Cl)c(NC3CCC3)n2)cc1 (stereo not shown) [Compound 234],log p,[7],3.45[c]
CN(C)C(=O)c1ccc(Nc2ncc(Br)c(NC3CCC3)n2)cc1 [Compound 100],herbicidal effect AMARE,[1],70%
same,herbicidal effect CAPBP,[2],70%
same,herbicidal effect STEME,[3],70%
same,log p,[4],1.73[b]
CC1CC(C)CN(c2cccc(Nc3ncc(Cl)c(NC4CCC4)n3)c2)C1 (stereo not shown) [Compound 51],log p,[6]; pH 2.3,2.94[a];
same,log p,[7],5.82[c]
Fc1ccc(Nc2ncc(Cl)c(NC3CCC3)n2)cc1 [Compound 47],log p,[6]; pH 2.3,2.15[a];
same,log p,[7],3.7[c]
O=C1CCCN1c1cccc(Nc2ncc(C(F)(F)F)c(NC3CCC3)n2)c1 [Compound 55],log p,[6]; pH 2.3,2.64[a];
same,log p,[7],3.09[c]
NS(=O)(=O)c1cc(Nc2ncc(Cl)c(NC3CCC3)n2)cc(C(F)(F)F)c1 [compound 24],log p,[6]; pH 2.3,2.7[a]
CC(=O)N(C)c1ccc(Nc2ncc(Cl)c(NC3CCC3)n2)cc1 [Compound 120],herbicidal effect AMARE,[1],90%
same,herbicidal effect CAPBP,[2],70%
same,log p,[4],1.64[b]
CC(=O)N(C)c1cccc(Nc2ncc(Cl)c(NC3CCC3)n2)c1 [Compound 261],log p,[7],2.49[c]
CCSc1cccc(Nc2ncc(C(F)(F)F)c(NC3CCC3)n2)c1 [Compound 235],log p,[7],4.8[c]
O=C1CCCN1c1cc(Nc2ncc(Cl)c(NC3CCC3)n2)ccc1F [Compound 212],log p,[6]; pH 2.3,1.75[a]
CN(c1nc(Nc2ccccc2)ncc1Cl)C1CCC1 [compound 245],log p,[6]; pH 2.3,3.32[a]
CC(C)NC(=O)c1ccc(Nc2ncc(Cl)c(NC3CCC3)n2)cc1 [Compound 248],log p,[7],2.68[c]
"CC(C)Oc1ccc(Nc2ncc(Cl)c(NC3CCC3)n2)cc1.Cl [Compound 36, 5-Chloro-N^4-cyclobutyl-N^2-(4-isopropoxyphenyl)pyrimidine-2,4-diamine hydrochloride]",chromatographic logP,[6]; pH 2.3,2.21
same,log p,[4],2.44[b]
O=C1CCCN1c1cccc(Nc2ncc(Br)c(NC3CCC3)n2)c1 [Compound 45],herbicidal effect AMARE,[1],70%
same,herbicidal effect CAPBP,[2],70%
same,herbicidal effect STEME,[3],80%
same,log p,[4],1.84[b]
Cl.Clc1cccc(Nc2ncc(Cl)c(NC3CCC3)n2)c1 [Compound 2-1],log p,[6]; pH 2.3,3.09^[a]
Cc1ccc(S(=O)(=O)O)cc1.Cc1nc(Nc2ccccc2)nc(NC2CCC2)c1Cl [Compound 2-8],log p,[6]; pH 2.3,1.95^[a]
CSc1cccc(Nc2ncc(C(F)(F)F)c(NC3CCC3)n2)c1 [Compound 57],log p,[6]; pH 2.3,4.05[a];
same,log p,[7],4.36[c]
CCN(CC)C(=O)c1ccc(Nc2ncc(Cl)c(NC3CCC3)n2)cc1 [Compound 250],log p,[7],3.19[c]
"Clc1ncc(Br)c(NC2CCC2)n1 [Compound V-2, 5-Bromo-2-chloro-N-cyclobutylpyrimidine-4-amine]",chromatographic logP,[6]; pH 2.3,2.87
CN1CCN(c2cccc(Nc3ncc(Br)c(NC4CCC4)n3)c2)C1=O [Compound 59],herbicidal effect ABUTH,[5],80%
same,herbicidal effect CAPBP,[2],70%
same,herbicidal effect STEME,[3],80%
same,log p,[4],1.79[b]
"FC(F)(F)c1cnc(Nc2ccccc2)nc1NC1CCC1 [Compound 54, N^4-Cyclobutyl-N^2-phenyl-5-(trifluoromethyl)pyrimidine-2,4-diamine]",chromatographic logP,[6]; pH 2.3,3.33
same,chromatographic logP,[7],3.96
O=C1CCCN1c1ccc(Nc2ncc(C(F)(F)F)c(NC3CCC3)n2)cc1 [Compound 56],log p,[6]; pH 2.3,2.51[a];
same,log p,[7],3.01[c]
CC(=O)Nc1cccc(Nc2ncc(Cl)c(NC3CCC3)n2)c1 [Compound 123],herbicidal effect AMARE,[1],100%
same,herbicidal effect CAPBP,[2],80%
same,herbicidal effect STEME,[3],70%
same,log p,[4],1.51[b]
"CC1(Nc2nc(Nc3ccccc3)ncc2Cl)CCC1 [Compound 52, 5-Chloro-N^4-(1-methylcyclobutyl)-N^2-phenylpyrimidine-2,4-diamine]",chromatographic logP,[6]; pH 2.3,2.1
same,chromatographic logP,[4],2.1
O=C1CCCCCN1c1cccc(Nc2ncc(Br)c(NC3CCC3)n2)c1 [Compound 215],log p,[6]; pH 2.3,2.08[a]
O=C1CCCCCN1c1cccc(Nc2ncc(Cl)c(NC3CCC3)n2)c1 [Compound 216],log p,[6]; pH 2.3,1.96[a]
CN(C)S(=O)(=O)c1ccc(Nc2ncc(Cl)c(NC3CCC3)n2)cc1.Cl [Compound 2-7],log p,[6]; pH 2.3,2.58^[a]
N#CCC(=O)c1ccc(Nc2ncc(Br)c(NC3CCC3)n2)cc1 [Compound 149],herbicidal effect AMARE,[1],90%
same,herbicidal effect CAPBP,[2],90%
same,herbicidal effect STEME,[3],70%
same,log p,[4],2.57[b]
Cl.Clc1cnc(Nc2ccccc2)nc1NC1CCC1 [Compound 2-2],log p,[6]; pH 2.3,1.97^[a]
CS(=O)(=O)c1cccc(Nc2ncc(Cl)c(NC3CCC3)n2)c1 [Compound 263],log p,[7],2.63[c]
O=C1CCCN1c1cc(Nc2ncc(C(F)(F)F)c(NC3CCC3)n2)ccc1F [Compound 211],log p,[6]; pH 2.3,2.69[a];
same,log p,[7],2.96[c]
CNS(=O)(=O)c1ccc(Nc2ncc(Cl)c(NC3CCC3)n2)cc1 [compound 25],log p,[6]; pH 2.3,2.01[a]
CSc1cccc(Nc2ncc(Cl)c(NC3CCC3)n2)c1 [Compound 128],herbicidal effect AMARE,[1],90%
same,herbicidal effect CAPBP,[2],80%
same,herbicidal effect STEME,[3],90%
same,log p,[4],2.46[b]
